According to patent US9637490B2, “Antifungal 5,6-dihydro-4-[(difluoroethyl)phenyl]-4H-pyrrolo[1,2-α][1,4]benzodiazepine and 4-(difluoroethyl)phenyl-6H-pyrrolo[1,2-α][1,4]benzodiazepine derivatives” (Janssen Pharmaceutica NV, priority 2010, dated 2017):

Columns and labels:
[1] = test system: Aspergillus fumigatus B42928; assay: Antifungal activity in vitro (resazurin susceptibility screen), Inf. E; assay type: cell-based; conditions: Aspergillus fumigatus, B42928, Aspergillus fumigatus B42928; 27 °C, 48 hours, resa time 17 hours
Outline: (§1)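 Compounds were tested in 2- or 4-fold serial dilution up to 64 μM against cryopreserved isolates (10^3 cfu/well) in RPMI-1640 with L-glutamine, 2% glucose and MOPS pH 7.0. Incubation ran 24 h at 37° C for yeasts to a week or more at 27° C for dermatophytes; growth was read by resazurin fluorescence (ex 550/em 590 nm).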

[2] = test system: Trichophyton mentagrophytes B70554; assay: Antifungal activity in vitro (resazurin susceptibility screen), Inf. G; assay type: cell-based; conditions: Trichophyton mentagrophytes, B70554, Trichophyton mentagrophytes B70554; 27 °C, 7 days, resa time 24 hours
Outline: as §1

[3] = test system: Candida parapsilosis B66126; assay: Antifungal activity in vitro (resazurin susceptibility screen), Inf. D; assay type: cell-based; conditions: Lodderomyces parapsilosis, B66126, Candida parapsilosis B66126; 37 °C, 24 hours, resa time 4 hours
Outline: as §1

[4] = test system: Scedosporium apiospermum IHEM3817; assay: Antifungal activity in vitro (resazurin susceptibility screen), Inf. H; assay type: cell-based; conditions: Scedosporium apiospermum, IHEM3817, Scedosporium apiospermum IHEM3817; 37 °C, 48 hours, resa time 17 hours
Outline: as §1

[5] = test system: Mucor circinelloides IHEM21105; assay: Antifungal activity in vitro (resazurin susceptibility screen), Inf. L; assay type: cell-based; conditions: 27 °C, 48 hours, resa time 17 hours
Outline: as §1

CC(F)(F)c1ccc(C2=NCc3c(Cl)cccc3-n3cccc32)cc1 [Compound 4, 7-chloro-4-[4-(1,1-difluoroethyl)phenyl]-6H-pyrrolo[1,2-a][1,4]benzodiazepine]
IC50 [1]: 2.24 µM | IC50 [2]: 0.891 µM | IC50 [3]: 3.09 µM | melting point: 215.2 to 217.6 °C | IC50 [4]: > 64.6 µM | IC50 [5]: > 64.6 µM
